Read-outs that look alike come from different tables or passages of the source.
Key:
[1] = tested on: TGF-β1 secretion by CHO cell line TGF-β3-2000 clone 17; assay: Secretion of TGF-β1 by transfected CHO cells treated with glycosylation inhibitors (pulse-chase, densitometry); format: cell-based, Chinese hamster
[2] = tested on: proteolytic processing of TGF-β1 precursor in TGF-β3-2000 clone 17 CHO cells; assay: Proteolytic processing of TGF-β1 precursor in CHO cells treated with weak bases or ionophore; format: cell-based, Chinese hamster
[3] = molecular target: T1, CHO cells overexpressing the human IGF-II/man6P receptor (Homo sapiens, UniProt P11717); assay: Binding to CHO cells overexpressing the receptor
T1 construct: expressed in transfected cells; host or cells: CHO cells
T1 sequence (P11717 41-2491): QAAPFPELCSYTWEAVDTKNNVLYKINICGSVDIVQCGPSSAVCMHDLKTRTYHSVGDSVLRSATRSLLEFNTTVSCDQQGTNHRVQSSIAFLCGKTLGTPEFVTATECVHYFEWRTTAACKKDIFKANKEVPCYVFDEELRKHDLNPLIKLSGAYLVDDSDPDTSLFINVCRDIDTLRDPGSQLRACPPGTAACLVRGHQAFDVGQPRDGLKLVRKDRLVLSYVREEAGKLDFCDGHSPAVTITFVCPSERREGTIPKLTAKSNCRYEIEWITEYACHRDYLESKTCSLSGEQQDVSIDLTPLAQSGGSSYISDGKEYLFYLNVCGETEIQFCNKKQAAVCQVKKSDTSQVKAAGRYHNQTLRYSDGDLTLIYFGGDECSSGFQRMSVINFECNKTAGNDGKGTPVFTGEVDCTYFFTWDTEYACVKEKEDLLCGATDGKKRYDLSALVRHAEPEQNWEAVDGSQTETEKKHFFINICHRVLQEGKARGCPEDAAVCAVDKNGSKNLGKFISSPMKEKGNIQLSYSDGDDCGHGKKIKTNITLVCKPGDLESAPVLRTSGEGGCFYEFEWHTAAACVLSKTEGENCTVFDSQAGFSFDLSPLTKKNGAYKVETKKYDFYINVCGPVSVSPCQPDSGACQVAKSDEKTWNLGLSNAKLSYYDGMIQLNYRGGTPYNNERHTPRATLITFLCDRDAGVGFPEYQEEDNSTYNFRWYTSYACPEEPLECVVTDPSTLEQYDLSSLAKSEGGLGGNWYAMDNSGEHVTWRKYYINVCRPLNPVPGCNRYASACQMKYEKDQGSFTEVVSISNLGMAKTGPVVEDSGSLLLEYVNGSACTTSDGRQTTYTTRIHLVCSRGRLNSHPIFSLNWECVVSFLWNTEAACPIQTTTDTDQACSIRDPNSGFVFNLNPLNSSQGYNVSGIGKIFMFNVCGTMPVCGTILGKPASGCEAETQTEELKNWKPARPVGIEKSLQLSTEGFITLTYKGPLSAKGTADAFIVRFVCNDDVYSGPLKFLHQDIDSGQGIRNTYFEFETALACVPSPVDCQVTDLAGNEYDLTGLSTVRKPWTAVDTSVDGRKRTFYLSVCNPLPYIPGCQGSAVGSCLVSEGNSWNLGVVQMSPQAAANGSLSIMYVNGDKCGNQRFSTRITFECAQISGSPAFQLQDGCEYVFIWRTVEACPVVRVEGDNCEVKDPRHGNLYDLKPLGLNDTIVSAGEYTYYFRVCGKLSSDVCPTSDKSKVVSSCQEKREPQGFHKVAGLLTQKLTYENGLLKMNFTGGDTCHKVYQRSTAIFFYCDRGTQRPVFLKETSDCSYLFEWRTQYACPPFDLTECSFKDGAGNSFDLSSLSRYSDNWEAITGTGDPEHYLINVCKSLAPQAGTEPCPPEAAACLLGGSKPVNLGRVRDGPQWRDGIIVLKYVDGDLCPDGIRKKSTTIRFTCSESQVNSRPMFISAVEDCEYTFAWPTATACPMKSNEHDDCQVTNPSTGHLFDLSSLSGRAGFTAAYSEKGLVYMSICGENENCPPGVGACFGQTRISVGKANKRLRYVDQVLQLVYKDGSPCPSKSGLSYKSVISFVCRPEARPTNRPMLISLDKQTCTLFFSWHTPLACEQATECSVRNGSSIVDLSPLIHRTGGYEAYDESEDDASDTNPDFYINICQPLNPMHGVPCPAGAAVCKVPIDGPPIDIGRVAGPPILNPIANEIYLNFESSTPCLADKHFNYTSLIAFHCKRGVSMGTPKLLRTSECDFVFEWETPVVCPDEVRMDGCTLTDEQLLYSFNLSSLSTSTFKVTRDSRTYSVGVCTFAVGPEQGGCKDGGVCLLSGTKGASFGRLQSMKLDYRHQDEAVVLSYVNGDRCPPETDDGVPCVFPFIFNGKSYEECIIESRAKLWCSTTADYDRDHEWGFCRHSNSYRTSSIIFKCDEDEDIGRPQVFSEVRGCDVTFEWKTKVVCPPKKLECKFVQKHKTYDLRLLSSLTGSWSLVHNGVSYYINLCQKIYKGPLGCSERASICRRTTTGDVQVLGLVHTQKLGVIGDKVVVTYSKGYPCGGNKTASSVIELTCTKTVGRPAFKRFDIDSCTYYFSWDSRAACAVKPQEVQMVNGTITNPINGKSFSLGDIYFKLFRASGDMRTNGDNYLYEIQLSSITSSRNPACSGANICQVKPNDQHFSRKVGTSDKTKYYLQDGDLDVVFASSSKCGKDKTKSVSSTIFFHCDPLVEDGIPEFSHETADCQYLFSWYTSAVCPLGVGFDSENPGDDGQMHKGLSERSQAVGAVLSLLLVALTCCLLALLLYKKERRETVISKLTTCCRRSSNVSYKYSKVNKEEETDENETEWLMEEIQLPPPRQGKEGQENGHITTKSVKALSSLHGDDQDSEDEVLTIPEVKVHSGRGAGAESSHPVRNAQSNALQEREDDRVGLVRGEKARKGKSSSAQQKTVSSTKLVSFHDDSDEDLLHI
Method: Binding and internalization studies with transfected and control CHO cells were performed in 24-well culture plates. Confluent cells were washed and incubated for 5 hours at 4°C with the labeled ligand in 0.3 ml of binding buffer (100 mM Hepes, pH 7.6, 120 mM NaCl, 1.2 mM MgSO₄, 15 mM sodium acetate, 5 mM glucose). Cells were then washed twice, lysed with 0.1% sodium docecyl sulfate and counted. For the internalization studies, labeled ligand was added to the cells in serum-free Ham's F-12 medium containing 0.1% bovine serum albumin and 20 mM Hepes, pH 7.6. After the indicated periods of time at 37°C, the cells were put on ice and washed with pre-cooled Hepes buffered saline containing 0.3 mM CaCl₂. […] The cells were then washed, solubilized, and counted as above.

[4] = molecular target: T2, IGF-II/man6P receptor on adipocytes (Rattus norvegicus, UniProt G3V824); assay: Binding to rat adipocytes with or without insulin pretreatment; settings: 3mM, read-out: inhibition of TGF-β1 precursor binding
T2 construct: from tissue; host or cells: primary adipocytes from epididymal fat pads of male Sprague-Dawley rats
T2 sequence (G3V824 36-2481): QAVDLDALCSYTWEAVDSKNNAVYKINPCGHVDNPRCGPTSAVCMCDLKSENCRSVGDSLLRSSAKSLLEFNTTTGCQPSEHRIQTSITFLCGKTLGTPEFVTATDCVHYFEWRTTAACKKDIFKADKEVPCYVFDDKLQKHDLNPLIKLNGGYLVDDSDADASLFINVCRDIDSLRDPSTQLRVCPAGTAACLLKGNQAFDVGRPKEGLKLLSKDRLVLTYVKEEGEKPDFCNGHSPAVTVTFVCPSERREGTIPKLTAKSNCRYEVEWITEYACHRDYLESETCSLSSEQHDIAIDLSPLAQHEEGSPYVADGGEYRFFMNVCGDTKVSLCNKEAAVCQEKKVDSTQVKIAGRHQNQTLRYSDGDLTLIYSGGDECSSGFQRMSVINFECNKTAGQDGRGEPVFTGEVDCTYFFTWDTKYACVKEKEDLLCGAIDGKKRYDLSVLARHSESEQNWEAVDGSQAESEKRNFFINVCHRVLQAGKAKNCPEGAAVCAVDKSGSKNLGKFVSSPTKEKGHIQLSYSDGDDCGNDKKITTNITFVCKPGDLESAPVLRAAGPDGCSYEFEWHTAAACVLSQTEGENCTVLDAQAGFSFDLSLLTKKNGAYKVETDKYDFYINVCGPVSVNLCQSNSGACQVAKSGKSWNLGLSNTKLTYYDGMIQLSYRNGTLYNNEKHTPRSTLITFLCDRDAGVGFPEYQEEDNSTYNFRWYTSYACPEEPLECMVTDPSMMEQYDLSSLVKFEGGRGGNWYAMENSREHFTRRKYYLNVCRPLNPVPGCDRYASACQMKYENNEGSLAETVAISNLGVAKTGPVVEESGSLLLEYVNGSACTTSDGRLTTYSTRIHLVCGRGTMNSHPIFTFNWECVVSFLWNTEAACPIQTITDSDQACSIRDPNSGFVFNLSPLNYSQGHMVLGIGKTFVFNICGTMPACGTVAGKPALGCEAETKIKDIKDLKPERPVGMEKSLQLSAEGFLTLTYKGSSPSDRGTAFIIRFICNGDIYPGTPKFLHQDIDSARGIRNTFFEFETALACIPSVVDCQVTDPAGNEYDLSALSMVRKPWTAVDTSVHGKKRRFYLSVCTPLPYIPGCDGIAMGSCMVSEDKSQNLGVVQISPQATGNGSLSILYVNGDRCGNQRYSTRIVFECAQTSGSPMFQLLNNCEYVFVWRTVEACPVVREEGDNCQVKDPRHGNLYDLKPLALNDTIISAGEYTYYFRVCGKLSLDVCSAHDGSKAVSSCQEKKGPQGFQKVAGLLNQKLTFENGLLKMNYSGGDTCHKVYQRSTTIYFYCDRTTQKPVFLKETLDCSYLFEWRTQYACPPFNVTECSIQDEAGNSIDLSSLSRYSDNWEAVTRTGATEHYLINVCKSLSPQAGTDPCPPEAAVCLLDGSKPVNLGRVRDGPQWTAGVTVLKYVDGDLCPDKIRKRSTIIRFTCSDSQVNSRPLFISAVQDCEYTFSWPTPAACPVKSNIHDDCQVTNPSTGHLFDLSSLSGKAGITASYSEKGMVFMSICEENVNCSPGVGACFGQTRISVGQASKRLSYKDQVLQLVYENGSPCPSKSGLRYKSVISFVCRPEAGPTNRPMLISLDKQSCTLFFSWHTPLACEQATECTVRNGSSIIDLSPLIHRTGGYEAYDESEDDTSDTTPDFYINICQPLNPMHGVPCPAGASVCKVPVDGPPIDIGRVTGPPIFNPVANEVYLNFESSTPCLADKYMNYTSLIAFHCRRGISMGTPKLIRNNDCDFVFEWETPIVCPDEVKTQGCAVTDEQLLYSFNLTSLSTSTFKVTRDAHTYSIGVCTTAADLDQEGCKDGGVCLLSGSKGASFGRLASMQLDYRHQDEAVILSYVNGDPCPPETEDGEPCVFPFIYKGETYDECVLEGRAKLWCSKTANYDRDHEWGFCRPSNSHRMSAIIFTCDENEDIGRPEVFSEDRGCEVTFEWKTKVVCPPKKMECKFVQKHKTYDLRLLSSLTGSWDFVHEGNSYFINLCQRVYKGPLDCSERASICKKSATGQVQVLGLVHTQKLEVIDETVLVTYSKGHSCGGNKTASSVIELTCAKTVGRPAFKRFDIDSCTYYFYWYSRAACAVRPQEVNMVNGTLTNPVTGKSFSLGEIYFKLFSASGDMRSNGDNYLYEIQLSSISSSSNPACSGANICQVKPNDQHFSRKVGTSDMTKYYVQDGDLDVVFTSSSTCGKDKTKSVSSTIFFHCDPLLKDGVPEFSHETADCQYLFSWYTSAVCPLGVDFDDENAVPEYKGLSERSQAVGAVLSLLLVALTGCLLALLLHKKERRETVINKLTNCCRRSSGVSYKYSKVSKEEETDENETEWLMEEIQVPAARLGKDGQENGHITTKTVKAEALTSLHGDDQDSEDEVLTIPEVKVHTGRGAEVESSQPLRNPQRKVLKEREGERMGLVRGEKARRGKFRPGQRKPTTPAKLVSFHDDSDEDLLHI
Method: The epididymal fat pads from male Sprague-Dawley rats (180-220 g) were excised, minced, and collagenase-digested as described (Rodberg, 1964, J. Biol. Chem. 239:375-380). The isolated adipocytes were pre-incubated with or without 1 µM insulin for 10 min at 37°C in 0.7 ml Krebs-Ringer buffer (107 mM NaCl, 5mM KCl, 3mM CaCl₂, 1mM MgSO₄, 7 mM NaHCO₃, 10 mM glucose, and 20 mM Hepes, pH 7.8) with 3% bovine serum albumin. The indicated labeled ligand was added and the incubations continued for 45 minutes at 37°. The cells were separated from the media by centrifugation through silicon oil and the radioactivity in the cell layer counted.

[5] = molecular target: human mannose 6-phosphate/IGF-II receptor (Homo sapiens, UniProt P11717); assay: Solid phase receptor assay, binding of 125I-TGF-β1 precursor to purified receptor
Sequence of human mannose 6-phosphate/IGF-II receptor (P11717 41-2491): as the sequence (P11717 41-2491) above

Compound: O[C@H]1[C@H](O)[C@@H](O)CN2CC[C@H](O)[C@H]12 [CA, castanospermine]
- activity at 520 µM ([1]; Cricetulus griseus, CHO, 6 h, read-out: level of secretion relative to control cells): 5 to 15%

Compound: CCN(CC)CCCC(C)Nc1ccnc2cc(Cl)ccc12 (stereo not drawn) [Chloroquine, Chloroquine diphosphate]
- activity at 200 µM ([2]; Cricetulus griseus, CHO, 6 h chase, 10mM ammonium chloride, 200 µM chloroquine, 1 µM monensin, read-out: cleavage efficiency (proteolytic processing) relative to control values): ~20%

Compound: O=P(O)(O)OC1O[C@H](CO)[C@@H](O)[C@H](O)[C@@H]1O (stereo partly drawn) [Mannose 1-phosphate, mannose 1-phosphate]
- times less effective than man6P at inhibiting binding of the TGF-β1 precursor ([3]; FIG. 37A): at least 1,000 times

Compound: O[C@H]1[C@H]2[C@H](O)CCCN2C[C@H]1O [SW, swainsonine]
- activation at 230 µM ([1]; Cricetulus griseus, CHO, 6 h, read-out: increase in levels of secreted recombinant proteins): ~30%

Compound: OC[C@H]1NC[C@@H](O)[C@@H](O)[C@@H]1O [dMM, 1-deoxymannojirimycin]
- activation at 4000 µM ([1]; Cricetulus griseus, CHO, 6 h chase, 0.23 mM SW, 4 mM dMM, read-out: increase in levels of secreted recombinant proteins): ~30%

Compound: OC[C@H]1NC[C@H](O)[C@@H](O)[C@@H]1O [dN, 1-deoxynojirimycin]
- activity at 4000 µM ([1]; Cricetulus griseus, CHO, 6 h chase, 6 µM TU, 0.52 mM CA, 4 mM dN, read-out: level of secretion relative to control cells): 5 to 15%

Compound: O=P(O)(O)OC[C@H]1OC(O)[C@@H](O)[C@@H](O)[C@@H]1O (stereo partly drawn) [mannose 6-phosphate]
- inhibition at 3000 µM ([4]; control adipocytes): 65%
- inhibition at 3000 µM ([4]; insulin-treated adipocytes): 81%
- IC50 ([3]; FIG. 37A, read-out: half-maximal inhibition of TGF-β1 precursor binding to transfected CHO cells): 10 µM
- IC50 ([3]; read-out: half-maximal inhibition of rTGF-β1 precursor binding to transfected CHO cells): 10 µM
- inhibition at 50 µM ([5]; 50µM competitor, read-out: inhibition of 125I-labeled TGF-β1 precursor binding to purified receptor): 90%
- IC50 ([5]; read-out: half-maximal inhibition of binding to the isolated receptor): 8 µM

Compound: CC[C@@]1([C@@H]2O[C@@H]([C@H]3O[C@@](O)(CO)[C@H](C)C[C@@H]3C)C[C@@H]2C)CC[C@H]([C@]2(C)CC[C@]3(C[C@H](O)[C@@H](C)[C@@H]([C@@H](C)[C@@H](OC)[C@H](C)C(=O)O)O3)O2)O1 [monensin]
- cleavage efficiency (proteolytic processing) relative to control values [2]: ~20%

Compound: ammonium chloride
- cleavage efficiency (proteolytic processing) relative to control values ([2]; 6 h chase, 10mM ammonium chloride, 200 µM chloroquine, 1 µM monensin): about 70%

Compound: tunicamycin
- level of secretion relative to control cells ([1]; 6 h chase, 6 µM TU, 0.52 mM CA, 4 mM dN): 5-15%

From EP0373994A1, “Mutants of simian transforming growth factor-beta 1” (ONCOGEN LIMITED PARTNERSHIP, priority 1988, dated 1990)
